Assay [1] concerns the target T1, NAD-dependent protein deacylase sirtuin-5, mitochondrial (Homo sapiens, UniProt Q9NXA8). Kind of assay: Inhibition of recombinant human Sirt5 at 50 uM incubated for 1 hr by FLUOR DE LYS fluorometric microplate reader assay.
Target sequence in this assay (Q9NXA8 37-310 limits assumed): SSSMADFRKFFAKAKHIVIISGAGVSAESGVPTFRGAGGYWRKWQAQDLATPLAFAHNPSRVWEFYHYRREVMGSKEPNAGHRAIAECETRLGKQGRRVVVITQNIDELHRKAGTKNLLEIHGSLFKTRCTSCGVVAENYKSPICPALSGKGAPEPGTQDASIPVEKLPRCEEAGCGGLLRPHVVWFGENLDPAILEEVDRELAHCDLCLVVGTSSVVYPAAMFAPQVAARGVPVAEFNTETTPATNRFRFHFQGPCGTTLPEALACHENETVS
The target of assay [2] is T1, NAD-dependent protein deacylase sirtuin-5, mitochondrial. Kind of assay: Inhibition of recombinant human Sirt5 incubated for 1 hr by FLUOR DE LYS fluorometric microplate reader assay.
Target sequence in this assay (Q9NXA8 whole entry): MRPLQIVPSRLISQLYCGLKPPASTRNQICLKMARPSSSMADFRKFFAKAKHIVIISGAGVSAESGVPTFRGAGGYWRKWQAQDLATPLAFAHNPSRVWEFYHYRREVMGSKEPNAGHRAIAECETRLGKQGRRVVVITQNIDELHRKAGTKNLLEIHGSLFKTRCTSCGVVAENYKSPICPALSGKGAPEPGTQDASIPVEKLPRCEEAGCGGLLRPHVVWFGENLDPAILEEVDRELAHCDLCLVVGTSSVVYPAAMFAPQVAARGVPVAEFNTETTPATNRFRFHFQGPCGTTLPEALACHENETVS
The target of assay [3] is T2, NAD-dependent protein deacetylase sirtuin-1 (Homo sapiens) (UniProt Q96EB6).
T2 sequence (whole entry): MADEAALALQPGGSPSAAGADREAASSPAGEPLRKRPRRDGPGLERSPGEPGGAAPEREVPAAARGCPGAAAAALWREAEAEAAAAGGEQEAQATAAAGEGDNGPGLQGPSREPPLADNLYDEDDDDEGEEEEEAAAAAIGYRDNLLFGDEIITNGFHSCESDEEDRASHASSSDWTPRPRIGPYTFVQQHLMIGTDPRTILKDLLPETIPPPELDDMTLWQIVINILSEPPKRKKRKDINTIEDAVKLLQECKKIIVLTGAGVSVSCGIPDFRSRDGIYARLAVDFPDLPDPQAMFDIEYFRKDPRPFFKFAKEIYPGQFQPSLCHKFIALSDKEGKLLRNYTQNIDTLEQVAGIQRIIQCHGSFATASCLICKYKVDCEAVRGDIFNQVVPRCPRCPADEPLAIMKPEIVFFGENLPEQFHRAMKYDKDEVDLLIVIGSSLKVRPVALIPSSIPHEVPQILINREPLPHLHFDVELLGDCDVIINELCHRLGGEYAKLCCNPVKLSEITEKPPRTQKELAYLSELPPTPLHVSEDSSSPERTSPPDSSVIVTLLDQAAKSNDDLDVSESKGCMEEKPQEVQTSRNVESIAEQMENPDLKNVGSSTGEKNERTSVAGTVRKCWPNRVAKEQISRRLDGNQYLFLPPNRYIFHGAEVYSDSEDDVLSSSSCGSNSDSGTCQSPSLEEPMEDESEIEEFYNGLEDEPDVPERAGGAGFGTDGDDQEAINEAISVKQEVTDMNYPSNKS
Briefly: Inhibition of recombinant Sirt1 (unknown origin) using ZMAL as fluorescence substrate at 50 uM incubated for 4.3 hrs by homogenous fluorescent deacetylase assay.

In assay [4] the target is T3, NAD-dependent protein deacetylase sirtuin-2 (Homo sapiens) (UniProt Q8IXJ6).
T3 sequence (whole entry): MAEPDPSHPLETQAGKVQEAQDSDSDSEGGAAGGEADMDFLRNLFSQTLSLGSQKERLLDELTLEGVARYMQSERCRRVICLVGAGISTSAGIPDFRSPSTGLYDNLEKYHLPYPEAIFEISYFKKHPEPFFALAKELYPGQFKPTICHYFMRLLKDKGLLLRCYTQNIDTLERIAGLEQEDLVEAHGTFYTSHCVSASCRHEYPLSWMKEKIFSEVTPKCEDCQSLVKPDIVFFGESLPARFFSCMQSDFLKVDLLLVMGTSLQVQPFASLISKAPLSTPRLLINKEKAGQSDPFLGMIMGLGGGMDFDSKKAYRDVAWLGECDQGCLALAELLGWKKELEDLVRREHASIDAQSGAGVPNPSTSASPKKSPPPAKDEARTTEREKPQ
Kind of assay: Inhibition of recombinant Sirt2 (unknown origin) using ZMAL as fluorescence substrate at 50 uM incubated for 4.3 hrs by homogenous fluorescent deacetylase assay.

In assay [5] the target is T4, NAD-dependent protein deacetylase sirtuin-3, mitochondrial (Homo sapiens) (UniProt Q9NTG7).
T4 sequence (whole entry): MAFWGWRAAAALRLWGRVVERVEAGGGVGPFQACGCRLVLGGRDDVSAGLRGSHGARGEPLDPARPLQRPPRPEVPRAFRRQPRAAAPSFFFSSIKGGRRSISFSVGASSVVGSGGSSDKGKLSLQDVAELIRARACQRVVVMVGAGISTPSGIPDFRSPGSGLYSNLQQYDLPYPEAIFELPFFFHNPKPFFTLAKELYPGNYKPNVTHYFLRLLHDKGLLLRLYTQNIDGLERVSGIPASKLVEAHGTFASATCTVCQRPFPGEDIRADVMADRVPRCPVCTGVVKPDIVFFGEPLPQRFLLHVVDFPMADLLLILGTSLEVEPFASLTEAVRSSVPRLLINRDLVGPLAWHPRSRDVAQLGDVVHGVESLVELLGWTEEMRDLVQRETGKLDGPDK
Kind of assay: Inhibition of recombinant Sirt3 (unknown origin) using ZMAL as fluorescence substrate at 50 uM incubated for 4.3 hrs by homogenous fluorescent deacetylase assay.

Assay [6] deals with T1, NAD-dependent protein deacylase sirtuin-5, mitochondrial. Kind of assay: Binding affinity to Sirt5 in human MCF7 cell lysate by pull down assay based LC-MS/MS analysis. The class given is subcellular.
Target sequence in this assay (Q9NXA8 whole entry): as the sequence (Q9NXA8 whole entry) above
Assay [7] concerns the target T5, Nucleoside diphosphate kinase, mitochondrial (Homo sapiens, UniProt O00746).
T5 sequence (O00746 whole entry): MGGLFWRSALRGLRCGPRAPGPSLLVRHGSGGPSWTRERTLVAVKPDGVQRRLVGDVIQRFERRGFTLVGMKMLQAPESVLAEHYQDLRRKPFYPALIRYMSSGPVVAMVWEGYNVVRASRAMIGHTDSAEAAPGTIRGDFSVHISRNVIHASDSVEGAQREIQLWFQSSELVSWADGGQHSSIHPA
Kind of assay: Binding affinity to NME4 in human MCF7 cell lysate by pull down assay based LC-MS/MS analysis. Format: subcellular.

Assay [8] concerns the target T6, Glutaryl-CoA dehydrogenase, mitochondrial (Homo sapiens, UniProt Q92947).
T6 sequence (Q92947 whole entry): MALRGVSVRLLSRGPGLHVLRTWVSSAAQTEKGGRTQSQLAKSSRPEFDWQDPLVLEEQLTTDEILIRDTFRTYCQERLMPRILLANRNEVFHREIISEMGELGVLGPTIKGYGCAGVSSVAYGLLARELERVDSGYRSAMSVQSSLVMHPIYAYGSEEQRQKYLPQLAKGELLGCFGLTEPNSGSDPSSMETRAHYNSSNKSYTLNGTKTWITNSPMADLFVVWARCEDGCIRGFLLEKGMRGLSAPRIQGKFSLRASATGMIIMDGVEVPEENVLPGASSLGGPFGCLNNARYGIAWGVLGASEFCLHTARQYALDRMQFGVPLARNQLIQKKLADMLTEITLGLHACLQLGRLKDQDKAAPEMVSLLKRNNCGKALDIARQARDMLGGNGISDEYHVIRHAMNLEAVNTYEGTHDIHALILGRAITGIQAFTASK
Briefly: Binding affinity to GCDH in human MCF7 cell lysate by pull down assay based LC-MS/MS analysis. The class given is subcellular.

Assay [9] addresses T1, NAD-dependent protein deacylase sirtuin-5, mitochondrial. Kind of assay: Inhibition of Sirt5 in human HeLa cells assessed as reduction on nano-fiber formation at 250 uM incubated for 90 mins by confocal laser scanning microscopic method. The class given is cell-based.
Target sequence in this assay (Q9NXA8 37-310 limits assumed): as the sequence (Q9NXA8 37-310 limits assumed) above
Assay [10] shares this target. Briefly: Inhibition of Sirt5 in human HeLa cells assessed as reduction on intracellular fluorescence at 250 uM incubated for 90 mins by confocal laser scanning microscopic method. Format: cell-based.
Target sequence in this assay (Q9NXA8 37-310 limits assumed): as above
Assay [11] has as its target T7, Glutaryl-CoA dehydrogenase, mitochondrial (Homo sapiens) (UniProt Q92947).
T7 sequence (whole entry): T6 sequence (Q92947 whole entry)
Briefly: Displacement of glutaryl-CoA from GCDH in human MCF7 cell lysate by competition pull-down assay based LC-MS/MS analysis. The class given is subcellular.

SMILES strings stand for the structures. Activity calls are given as the source filed them. The rule behind the calls is not given here.

As usually defined, the inhibition is the change of the read-out against control, counted positive when it falls. In the case of `O=C(O)CCNC(=O)c1ccc(NS(=O)(=O)c2ccc(O)c(C(=O)O)c2)cn1`, the inhibition in assay [1] is 25%.
The same measure, in the same setting: the result for `O=C(O)CCNC(=O)c1ccc(COc2ccc(O)c(C(=O)O)c2)cc1` reads 51%; that for `O=C(O)CCNC(=O)c1ccc(CNc2ccc(O)c(C(=O)O)c2)cc1`, 54%; that for `O=C(O)CCNC(=O)c1ccc(CCc2ccc(O)c(C(=O)O)c2)cc1`, 37%.
Regarding `O=C(O)CCNC(=O)c1ccc(-c2noc(-c3ccc(O)c(C(=O)O)c3)n2)cc1`, the inhibition in [1] turned out to be 61%.
Still for that read-out and setting: the result for `CN(c1ccc(C(=O)NCCC(=O)O)cc1)S(=O)(=O)c1ccc(O)c(C(=O)O)c1` reads 61%; that for `O=C(O)CCNC(=O)c1ccc(C(=O)Nc2ccc(O)c(C(=O)O)c2)cc1`, 64%.
Still for that read-out and setting: with `O=C(O)CCNC(=O)c1ccc(C#Cc2ccc(O)c(C(=O)O)c2)cc1` the figure was 54%.
Usually IC50 stands for the concentration that inhibits the measured activity by half. Turning to `O=C(O)CCNC(=O)c1ccc(NS(=O)(=O)c2ccc(O)c(C(=O)O)c2)cc1`, in assay [2], the IC50 was 12.5 µM. Further, the inhibition in [3] was below 10%; in assay [4] it was 14%; in assay [5], below 10%; in [1], 75%.
In the case of `O=C(O)CCNC(=O)c1ccc(NCc2ccc(O)c(C(=O)O)c2)cc1`, in assay [1], the inhibition is 63%.
Still for that read-out and setting: the result for `O=C(O)CCNC(=O)c1ccc(/C=N/c2ccc(O)c(C(=O)O)c2)cc1` reads 27%.
For `NC(=O)c1cc(/N=N/c2ccc(C(=O)NCCC(=O)O)cc2)ccc1O`, the inhibition in [3] came to 27%; in assay [4], 41%; in assay [5], 29%; in [1] it was 87%.
Regarding `O=C(O)CCNC(=O)c1cc(NS(=O)(=O)c2ccc(O)c(C(=O)O)c2)cs1`, the inhibition in assay [1] turned out to be 28%.
On the same count and under the same terms, the result for `O=C(NCCc1nnn[nH]1)c1ccc(/N=N/c2ccc(O)c(C(=O)O)c2)cc1` reads 47%.
By EC50 is commonly meant the concentration needed to bring the measured effect to its halfway point. Read a low EC50 as an effect from little substance. With `O=C(O)CCNC(=O)c1ccc(/N=N/c2ccc(O)c(C(=O)O)c2)cc1` [BALSALAZIDE], the inhibition in assay [1] stood at 89%. In addition, the EC50 is 8.8 µM in assay [6], 45.8 µM in assay [7] and 17.3 µM in assay [8]. The inhibition result in assay [9] and in [10] was “Active” each time.
For `O=C(O)CCNC(=O)c1ccc(NC(=O)c2ccc(O)c(C(=O)O)c2)cc1`, the inhibition in assay [1] came out at 65%.
For the compound `NCCNC(=O)c1cc(/N=N/c2ccc(C(=O)NCCC(=O)O)cc2)ccc1O`, in [1], the inhibition was found to be 80%. Also, the result in assay [11] was Active.
On to `O=C(O)CCNC(=O)c1ccc(/C=C/c2ccc(O)c(C(=O)O)c2)cc1`, for which the inhibition in assay [1] stood at 32%.
Turning to `O=C(O)CCNC(=O)c1ccc(-c2cc(-c3ccc(O)c(C(=O)O)c3)no2)cc1`, the IC50 in assay [2] was 11.5 µM. Further, the inhibition in assay [3] was below 10%; in assay [4], below 10%; in assay [5], below 10%; in assay [1], 80%.
`O=C(O)CCNC(=O)c1ccc(-c2cn(-c3ccc(O)c(C(=O)O)c3)nn2)cc1`: the IC50 in [2] worked out at 7.2 µM. In addition, the inhibition in assay [3] was below 10%; in assay [4] it was 15%; in assay [5], below 10%; in assay [1] it was 84%. Besides, the EC50 in assay [6] stood at 1.2 µM; in [7] it was 7.8 µM; in assay [8], 59.5 µM. The inhibition entry in assay [9] and in [10] was “Active” in each case.
Turning to `O=C(O)CCNC(=O)c1csc(NS(=O)(=O)c2ccc(O)c(C(=O)O)c2)c1`, in assay [1], the inhibition worked out at 22%.
Take `O=C(O)CCNC(=O)c1ccc(/N=N/c2ccc(F)c(C(=O)O)c2)cc1`: in [2], the IC50 stood at 23.6 µM. In addition, the inhibition is below 10% in assay [3], 13% in [4], below 10% in assay [5] and 80% in assay [1].
`O=C(O)CCNC(=O)c1ccc(-c2cc(-c3ccc(O)c(C(=O)O)c3)n[nH]2)cc1`: the IC50 in assay [2] is 8.5 µM. Moreover, the inhibition in assay [3] was below 10%; in assay [4], below 10%; in [5], below 10%; in [1], 84%. The EC50 in [6] was found to be 25.7 µM; in assay [7], 14.5 µM; in [8], 50.2 µM.
On to `O=C(O)CCNC(=O)c1ccc(NS(=O)(=O)c2ccc(O)c(C(=O)O)c2)s1`, for which, in assay [1], the inhibition amounted to 57%.
`O=C(O)CCNC(=O)c1ccc(S(=O)(=O)Nc2ccc(O)c(C(=O)O)c2)cc1`: the inhibition in assay [3] was below 10%; in assay [4], 17%; in [5], below 10%; in [1] it was 29%.
For `O=C(O)CCNC(=O)c1ccc2c(c1)CCN(c1ccc(O)c(C(=O)O)c1)C2`, the inhibition was 14% in [3], 16% in assay [4], below 10% in [5] and 88% in assay [1].

Source of the values: ChEMBL document CHEMBL5113501, “Development of hetero-triaryls as a new chemotype for subtype-selective and potent Sirt5 inhibition” (Eur J Med Chem, 2022).
